Measurements taken from the NIST ThermoML archive (doi:10.1016/j.jct.2005.09.004).

Assays:
[1] = refractive index (Na D-line) (dimensionless); φn = volume fraction of the nth substance listed; settings: 101 kPa, Liquid, Standard Abbe refractometry
[2] = xn = mol fraction of the nth substance listed; settings: for surface tension liquid-gas: Drop volume; for mass density: 101 kPa, Liquid

C1COCCO1 [1,4-dioxane] + C1CCCCC1
Settings	mass density [kg/m3]	refractive index	surface tension liquid-gas [mN/m]
[1], 283.15 K, φ1 = 0.0478	–	1.4305	–
[1], 283.15 K, φ1 = 0.075	–	1.42987	–
[1], 283.15 K, φ1 = 0.1601	–	1.42827	–
[1], 283.15 K, φ1 = 0.251	–	1.4271	–
[1], 283.15 K, φ1 = 0.3438	–	1.42629	–
[1], 283.15 K, φ1 = 0.4452	–	1.42577	–
[1], 283.15 K, φ1 = 0.5448	–	1.42557	–
[1], 283.15 K, φ1 = 0.649	–	1.42556	–
[1], 283.15 K, φ1 = 0.756	–	1.42585	–
[1], 283.15 K, φ1 = 0.8802	–	1.42643	–
[1], 283.15 K, φ1 = 0.9414	–	1.4268	–
[1], 298.15 K, φ1 = 0.0319	–	1.4226	–
[1], 298.15 K, φ1 = 0.0849	–	1.42144	–
[1], 298.15 K, φ1 = 0.1562	–	1.42012	–
[1], 298.15 K, φ1 = 0.2528	–	1.41893	–
[1], 298.15 K, φ1 = 0.3465	–	1.41821	–
[1], 298.15 K, φ1 = 0.4415	–	1.4178	–
[1], 298.15 K, φ1 = 0.5389	–	1.4177	–
[1], 298.15 K, φ1 = 0.651	–	1.41786	–
[1], 298.15 K, φ1 = 0.7604	–	1.41827	–
[1], 298.15 K, φ1 = 0.8701	–	1.41893	–
[1], 298.15 K, φ1 = 0.9439	–	1.41949	–
[1], 313.15 K, φ1 = 0.0381	–	1.41404	–
[1], 313.15 K, φ1 = 0.0816	–	1.41308	–
[1], 313.15 K, φ1 = 0.1625	–	1.41168	–
[1], 313.15 K, φ1 = 0.268	–	1.41055	–
[1], 313.15 K, φ1 = 0.3476	–	1.41002	–
[1], 313.15 K, φ1 = 0.4399	–	1.40973	–
[1], 313.15 K, φ1 = 0.5368	–	1.40971	–
[1], 313.15 K, φ1 = 0.6463	–	1.41003	–
[1], 313.15 K, φ1 = 0.7626	–	1.41069	–
[1], 313.15 K, φ1 = 0.8682	–	1.41143	–
[1], 313.15 K, φ1 = 0.9462	–	1.4121	–
[2], 283.15 K, x1 = 0.0502	796.53	–	–
[2], 283.15 K, x1 = 0.0684	–	–	26.1
[2], 283.15 K, x1 = 0.0999	805.45	–	–
[2], 283.15 K, x1 = 0.1484	–	–	25.94
[2], 283.15 K, x1 = 0.1953	823.9	–	–
[2], 283.15 K, x1 = 0.2267	–	–	25.85
[2], 283.15 K, x1 = 0.2899	843.69	–	–
[2], 283.15 K, x1 = 0.2974	–	–	25.97
[2], 283.15 K, x1 = 0.3996	868.5	–	–
[2], 283.15 K, x1 = 0.4402	–	–	26.2
[2], 283.15 K, x1 = 0.5017	893.36	–	–
[2], 283.15 K, x1 = 0.5509	–	–	26.51
[2], 283.15 K, x1 = 0.6007	919.28	–	–
[2], 283.15 K, x1 = 0.6578	–	–	27.08
[2], 283.15 K, x1 = 0.699	946.87	–	–
[2], 283.15 K, x1 = 0.7394	–	–	27.97
[2], 283.15 K, x1 = 0.7956	976.06	–	–
[2], 283.15 K, x1 = 0.8115	–	–	29.3
[2], 283.15 K, x1 = 0.8994	1009.7	–	–
[2], 283.15 K, x1 = 0.9186	–	–	32
[2], 283.15 K, x1 = 0.9446	1025.26	–	–
[2], 283.15 K, x1 = 0.9738	–	–	33.93
[2], 298.15 K, x1 = 0.0535	782.54	–	–
[2], 298.15 K, x1 = 0.0684	–	–	25.1
[2], 298.15 K, x1 = 0.1053	791.71	–	–
[2], 298.15 K, x1 = 0.1484	–	–	25.24
[2], 298.15 K, x1 = 0.1998	809.79	–	–
[2], 298.15 K, x1 = 0.2267	–	–	25.29
[2], 298.15 K, x1 = 0.2974	–	–	25.38
[2], 298.15 K, x1 = 0.3003	830.58	–	–
[2], 298.15 K, x1 = 0.4026	853.43	–	–
[2], 298.15 K, x1 = 0.4402	–	–	25.72
[2], 298.15 K, x1 = 0.5006	876.98	–	–
[2], 298.15 K, x1 = 0.5509	–	–	26.07
[2], 298.15 K, x1 = 0.5971	901.85	–	–
[2], 298.15 K, x1 = 0.6578	–	–	26.62
[2], 298.15 K, x1 = 0.7028	931.22	–	–
[2], 298.15 K, x1 = 0.7394	–	–	27.1
[2], 298.15 K, x1 = 0.8089	963.35	–	–
[2], 298.15 K, x1 = 0.8115	–	–	28
[2], 298.15 K, x1 = 0.9038	994.24	–	–
[2], 298.15 K, x1 = 0.9186	–	–	30.26
[2], 298.15 K, x1 = 0.9485	1009.6	–	–
[2], 298.15 K, x1 = 0.9738	–	–	31.99
[2], 313.15 K, x1 = 0.0497	767.71	–	–
[2], 313.15 K, x1 = 0.0684	–	–	23.8
[2], 313.15 K, x1 = 0.102	776.79	–	–
[2], 313.15 K, x1 = 0.1484	–	–	24.23
[2], 313.15 K, x1 = 0.1944	794	–	–
[2], 313.15 K, x1 = 0.2267	–	–	24.46
[2], 313.15 K, x1 = 0.2926	813.99	–	–
[2], 313.15 K, x1 = 0.2974	–	–	24.71
[2], 313.15 K, x1 = 0.3973	837	–	–
[2], 313.15 K, x1 = 0.4402	–	–	25.23
[2], 313.15 K, x1 = 0.4969	860.64	–	–
[2], 313.15 K, x1 = 0.5509	–	–	25.7
[2], 313.15 K, x1 = 0.5992	886.73	–	–
[2], 313.15 K, x1 = 0.6578	–	–	26.2
[2], 313.15 K, x1 = 0.6988	914.22	–	–
[2], 313.15 K, x1 = 0.7394	–	–	26.62
[2], 313.15 K, x1 = 0.7966	943.29	–	–
[2], 313.15 K, x1 = 0.8115	–	–	27.13
[2], 313.15 K, x1 = 0.8972	975.49	–	–
[2], 313.15 K, x1 = 0.9186	–	–	28.62
[2], 313.15 K, x1 = 0.9505	993.41	–	–
[2], 313.15 K, x1 = 0.9738	–	–	30.17
